Paper PMC5720837, “Identification of a 4-fluorobenzyl L-valinate amide benzoxaborole (AN11736) as a potential development candidate for the treatment of Animal African Trypanosomiasis (AAT)” (Bioorganic & Medicinal Chemistry Letters, 2018)

Experiments:
[1] = tested on: Trypanosoma congolense (T. congolense IL-3000 strain), bloodstream form; assay: Whole cell Alamar Blue assay, T. congolense (72 h in vitro); assay type: cell-based; details: T. congolense IL-3000, 72 h in vitro Alamar Blue assay
Experimental: (§1) Activity of compounds 1–71 against T. congolense and T. vivax was determined using the whole cell assays as described ^6 and their IC50 values are summarized in Table 1.
(§2) [6] Assay methods for determination of T. c. and T. v. […] Culture media consisted of complete HMI-9 (IMDM) with 20% bovine serum. To ensure log growth phase, trypanosomes were sub-cultured at appropriate dilutions every 2–3 days. Bloodstream form Trypanosoma vivax (T. vivax) cannot be cultured axenically, therefore trypanosomes (T. vivax STIB719/ILRAD 560 strain) were harvested from a highly parasitemia mouse via cardiac puncture and used directly in the ex vivo drug sensitivity assay on the same day. […] Parasite starting concentrations of 2 × 10^5 (T. c.) and 4 × 10^5 (T. v.) were calculated respectively, using a cell analyzer system or haemo-cytometer, followed by quantification at 536 nm excitation and 588 nm emission wavelengths using a […] reader. Test compounds were prepared as 10 mg/mL DMSO stocks for each assay run. Compounds were assayed in at least three separate, independent test runs and an 11-point dilution curve was used to determine the IC50 values. Data points were averaged to generate sigmoidal dose-response curves and IC50 values were determined using Softmax Pro 5.2 software.

[2] = tested on: Trypanosoma vivax (T. vivax STIB719/ILRAD 560 strain), bloodstream form; assay: Whole cell Alamar Blue assay, T. vivax (48 h ex vivo); assay type: cell-based; details: Trypanosoma vivax; T. vivax STIB719/ILRAD 560, 48 h ex vivo Alamar Blue assay
Experimental: as §1, §2

[3] = In vitro metabolic stability, mouse S9; assay type: in vitro ADME; details: S9 fraction
Experimental: (§3) Selected compounds were screened in both mouse and bovine in vitro metabolic stability assays (mouse S9 and bovine S9), as summarized in Table 2. These two species were chosen because the primary in vivo assays were conducted in mice, and the target animal of this research program is cattle. […] We evaluated the efficacy of selected compounds in two in vivo mouse models of infection, against T. congolense and T. vivax, respectively. Mice were infected with either 1 × 10^5 T. c. parasites or 1 × 10^4 T. v. parasites, and then treated with a test compound via intraperitoneal administration for 1, 2 or 4 consecutive days. The mice were then monitored for the presence of parasitemia for up to 60 days post treatment.[7] We tested in T. c. model first, then followed up with T. v. for interesting compounds. […] We selected compound 5 (AN11736) to progress to exploratory studies to determine the efficacy and safety in a preliminary formulation against induced infections of T. vivax and T. congolense in cattle.[8]

[4] = In vitro metabolic stability, bovine S9; assay type: in vitro ADME; details: S9 fraction
Experimental: as §3

[5] = tested on: T. c. parasites (STIB736/IL1180 strain); assay: In vivo mouse model of T. congolense infection; set-up: species or system NMRI female mice; details: intraperitoneal, monitored 60 days post treatment
Experimental: as §3
[7] Methods for testing compound efficacy in mouse models: In vivo mouse efficacy studies were performed at the Swiss TPH, using established mouse models of infection for T. c. and T. v. NMRI female mice were independently infected either with 1 × 10^5T. c. parasites/mouse (STIB736/IL1180 strain) or 1 × 10^4T. v. parasites/mouse (STIB719/ILRAD560 strain) using an intraperitoneal route. Parasitemia was allowed to develop over 7 days (T. c.) or 3 days (T. v.), respectively, before treatment was administered. Compounds were administered via intraperitoneal injection in 10% DMSO/water. Four mice were used per treatment group. Mice were monitored for the presence of trypanosomes, via tail blood examination microscopically with twice-per-week parasitemia checks for 60 days post treatment. Parasitemia was graded on a scale of 0–3, with 0 indicating no trypanosomes seen in 20 fields of view, 1 indicating the presence of 1–5 trypanosomes per field, 2 indicating the presence of 6–20 trypanosomes per field and 3 indicating greater than 20 trypanosomes per field. Mice scoring 2 or 3 were immediately euthanized. After 60 days, aparasitemic mice were considered cured. Untreated control mice survive on average for 10 and 6 days post infection for T. c. and T. v., respectively. All in vivo mouse experiments were conducted in accordance with the strict guidelines set out by the Swiss Federal Veterinary Office, under the ethical approval of license number #2813.

Row | Compound | IC50 ([1]; Trypanosoma congolense, 72 h) [nM] | IC50 [2] [nM] | microsomal CLint [3] [µL/min/mg] | microsomal CLint [4] [µL/min/mg] | Efficacy in mouse model T. c., n/m (mice survived / total mice in group) ([5]; 1 × 10 mg/kg) | IC50 [1] [nM] | Efficacy in mouse model T. c., n/m (mice survived / total mice in group) ([5]; 2 × 10 mg/kg)
1 | Cc1c(C(=O)N[C@H](C(=O)OCc2ccc(Cl)cc2)C(C)C)ccc2c1B(O)OC2 [Compound 6] | 0.47 | 2.9 | 17 | 9.1 | 0/4 (1 × 10) |  | 
2 | Cc1c(C(=O)N[C@H](C(=O)OCC2CCN(C)CC2)C(C)C)ccc2c1B(O)OC2 [Compound 66] | 5.9 | 4.1 |  |  |  |  | 
3 | Cc1c(C(=O)N[C@H](C(=O)OCc2cccc(CN3CCOCC3)c2)C(C)C)ccc2c1B(O)OC2 [Compound 53] | 0.51 | 0.35 | 5.4 | 6.8 | 0/4 (1 × 10) |  | 
4 | Cc1c(C(=O)N[C@H](C(=O)OCCN2CCOCC2)C(C)C)ccc2c1B(O)OC2 [Compound 64] | 2.3 | 0.78 |  |  |  |  | 
5 | Cc1c(C(=O)N[C@H](C(=O)OCc2cccc(OC(F)(F)F)c2)C(C)C)ccc2c1B(O)OC2 [Compound 12] | 0.31 | 19 |  |  |  |  | 
6 | Cc1c(C(=O)NC(C(=O)OCc2ccc(F)cc2)C(C)(C)F)ccc2c1B(O)OC2 (centres unmarked) [Compound 30] | 0.09 | 0.25 | 3.7 | 3.1 | 0/4 (1 × 10) |  | 
7 | Cc1c(C(=O)N[C@H](C(=O)OCCN2CCCC2)C(C)C)ccc2c1B(O)OC2 [Compound 65] | 9.4 | 1.2 |  |  |  |  | 
8 | Cc1c(C(=O)N[C@H](C(=O)OC2CCCCC2)C(C)C)ccc2c1B(O)OC2 [Compound 60] | < 0.005 | 0.78 |  |  |  |  | 
9 | Cc1c(C(=O)N[C@H](C(=O)OCc2cnccn2)C(C)C)ccc2c1B(O)OC2 [Compound 39] | 0.57 | 0.24 | 1.6 | 3.9 | 0/4 (1 × 10) |  | 
10 | Cc1c(C(=O)N[C@H](C(=O)OCCc2ccc(F)cc2)C(C)C)ccc2c1B(O)OC2 [Compound 67] | 0.43 | 0.79 |  |  |  |  | 
11 | C[C@H](NC(=O)c1ccc2c(c1)B(O)OC2)C(=O)OCc1ccccc1 [Compound 1] | 5 | 69 |  |  |  | 4.9 | 
12 | Cc1c(C(=O)N[C@H](C(=O)OCc2ccc3ncccc3c2)C(C)C)ccc2c1B(O)OC2 [Compound 46] | 0.42 | 0.24 | 7.4 | 7 | 1/4 (1 × 10) |  | 
13 | Cc1c(C(=O)N[C@H](C(=O)OCc2ccc(C#N)cc2)C(C)C)ccc2c1B(O)OC2 [Compound 15] | 0.15 | 0.05 |  |  |  |  | 
14 | Cc1c(C(=O)N[C@H](C(=O)OC2CCC2)C(C)C)ccc2c1B(O)OC2 [Compound 58] | 0.66 | 0.69 |  |  |  |  | 
15 | CC(C)[C@H](NC(=O)c1ccc2c(c1C(F)F)B(O)OC2)C(=O)OCc1ccc(F)cc1 [Compound 22] | 0.67 | 0.92 | 1.4 | 0.9 | 0/4 (1 × 10) |  | 
16 | Cc1c(C(=O)N[C@H](C(=O)OCc2ccc(F)c(Cl)c2)C(C)C)ccc2c1B(O)OC2 [Compound 16] | 0.08 | 0.07 | 15 | 8.9 | 1/4 |  | 4/4
17 | CC(C)[C@H](NC(=O)c1ccc2c(c1C1CC1)B(O)OC2)C(=O)OCc1ccc(F)cc1 [Compound 27] | 3.9 | 0.71 |  |  |  |  | 
18 | Cc1c(C(=O)N[C@H](C(=O)OCc2ccc(F)cc2)C2CC2)ccc2c1B(O)OC2 [Compound 28] | 0.12 | 0.38 |  |  |  |  | 
19 | Cc1c(C(=O)N[C@H](C(=O)OCc2nccs2)C(C)C)ccc2c1B(O)OC2 [Compound 42] | 0.2 | 0.19 |  |  |  |  | 
20 | Cc1c(C(=O)N[C@H](C(=O)OCc2ncc3ccccc3n2)C(C)C)ccc2c1B(O)OC2 [Compound 48] | < 0.005 | 0.71 | 4 | 23 | 1/4 (1 × 10) |  | 
21 | Cc1c(C(=O)N[C@H](C(=O)OC2COC2)C(C)C)ccc2c1B(O)OC2 [Compound 68] | 1.8 | 37 |  |  |  |  | 

Row | Compound | IC50 ([1]; Trypanosoma congolense, 72 h) [nM] | IC50 [2] [nM] | microsomal CLint [3] [µL/min/mg] | microsomal CLint [4] [µL/min/mg] | Efficacy in mouse model T. c., n/m (mice survived / total mice in group) ([5]; 1 × 10 mg/kg) | IC50 [1] [nM] | Efficacy in mouse model T. c., n/m (mice survived / total mice in group) ([5]; 2 × 10 mg/kg)
22 | Cc1c(C(=O)N[C@H](C(=O)OCc2ccc(C(F)(F)F)cc2)C(C)C)ccc2c1B(O)OC2 [Compound 11] | 0.16 | 24 |  |  |  |  | 
23 | Cc1c(C(=O)N[C@H](C(=O)OCc2ccccn2)C(C)C)ccc2c1B(O)OC2 [Compound 36] | 0.26 | 0.14 |  |  |  |  | 
24 | Cc1c(C(=O)N[C@H](C(=O)OCc2cccnc2)C(C)C)ccc2c1B(O)OC2 [Compound 37] | 0.78 | 0.5 |  |  |  |  | 
25 | Cc1c(C(=O)N[C@H](C(=O)OC(C)C)C(C)C)ccc2c1B(O)OC2 [Compound 56] | 5.2 | 14 |  |  |  |  | 
26 | Cc1c(C(=O)N[C@H](C(=O)OCc2ccc3ccccc3n2)C(C)C)ccc2c1B(O)OC2 [Compound 45] | 0.37 | 0.33 |  |  |  |  | 
27 | Cc1c(C(=O)N[C@H](C(=O)OCc2ccncc2)C(C)C)ccc2c1B(O)OC2 [Compound 38] | 0.68 | 0.31 |  |  |  |  | 
28 | Cc1c(C(=O)N[C@H](C(=O)OCc2cc(F)cc(F)c2)C(C)C)ccc2c1B(O)OC2 [Compound 9] | 0.18 | 0.1 |  |  |  |  | 
29 | CCCc1c(C(=O)N[C@H](C(=O)OCc2ccc(F)cc2)C(C)C)ccc2c1B(O)OC2 [Compound 25] | 3 | 4.7 |  |  |  |  | 
30 | Cc1c(C(=O)N[C@H](C(=O)OCc2ncc(F)cn2)C(C)C)ccc2c1B(O)OC2 [Compound 40] | 0.27 | 0.5 |  |  |  |  | 
31 | Cc1c(C(=O)N[C@H](C(=O)OC2CCCC2)C(C)C)ccc2c1B(O)OC2 [Compound 59] | 0.7 | 0.52 |  |  |  |  | 
32 | Cc1c(C(=O)N[C@H](C(=O)OCc2cccc(F)c2)C(C)C)ccc2c1B(O)OC2 [Compound 7] | 0.59 | 0.1 |  |  |  |  | 
33 | Cc1c(C(=O)N[C@H](C(=O)OCC2CCCC2)C(C)C)ccc2c1B(O)OC2 [Compound 61] | 0.36 | 0.21 |  |  |  |  | 
34 | Cc1c(C(=O)NC2(C(=O)OCc3ccc(F)cc3)CCC2)ccc2c1B(O)OC2 [Compound 32] | 0.45 | 2.5 |  |  |  |  | 
35 | Cc1c(C(=O)N[C@H](C(=O)OCc2cccc(C(F)(F)F)c2)C(C)C)ccc2c1B(O)OC2 [Compound 10] | 0.22 | 2.7 |  |  |  |  | 
36 | Cc1c(C(=O)N[C@H](C(=O)OCc2ccc(OC(F)(F)F)cc2)C(C)C)ccc2c1B(O)OC2 [Compound 13] | 0.23 | 0.04 |  |  |  |  | 
37 | Cc1c(C(=O)N[C@H](C(=O)OCC(C)C)C(C)C)ccc2c1B(O)OC2 [Compound 57] | 0.46 | 0.26 |  |  |  |  | 
38 | Cc1c(C(=O)N[C@H](C(=O)OCc2cscn2)C(C)C)ccc2c1B(O)OC2 [Compound 43] | 0.062 |  |  |  |  |  | 
39 | CC(C)[C@H](NC(=O)c1ccc2c(c1C(F)(F)F)B(O)OC2)C(=O)OCc1ccc(F)cc1 [Compound 23] | 37 | 51 |  |  |  |  | 
40 | Cc1c(C(=O)N[C@H](C(=O)OCc2c[nH]cn2)C(C)C)ccc2c1B(O)OC2 [Compound 44] | 5000 | 980 |  |  |  |  | 
41 | CC(C)[C@H](NC(=O)c1ccc2c(c1)B(O)OC2(C)C)C(=O)OCc1ccccc1 [Compound 3] | 2580 | 9190 |  |  |  |  | 
